# Data: patent US20130195770A1, “COMPOSITION AND METHOD FOR REDUCING ATHEROSCLEROTIC LESIONS” (DuPont Nutrition Bioscience ApS, priority 2010, published 2013)
# Experiments:
# [1] = system: CaCo-2 cells; assay: Uptake of micellar cholesterol by CaCo-2 cells with or without unlabeled cholesteryl oleate; type: cell-based, Human; conditions: CaCo-2 monolayers, 45 min at 37° C., [1,2-3H] cholesterol micelles with or without unlabeled cholesteryl oleate; p<0.001; FIG. 1A
# From the text: (§1) Human colon adenocarcinoma (Caco-2) cells were kindly provided by J T Rasmussen (Department of Molecular Biology Aarhus University C. F. M0llers Alle 3DK-8000 Aarhus CDenmark). Cells were routinely maintained in NUNCLON flasks in Dulbecco's […] (DMEM) supplemented with 4.5g/1 glucose. 10% heat-inactivated fetal bovine serum (FBS), 1% nonessential amino acid (NEAA), and 1% antibiotics (complete medium), as previously described (Hidalgo I J. Raub T J. Borchardt R T, Gastroenterology, (1989) ar;96(3):736-49). Once the flasks reached 80% confiuency, the cells were dispersed and seeded into 24-well plates at density 10^5 cells/well in DMEM supplemented with 10% FBS and 1% NEAA. […]
# (§2) Micelles were prepared according to the method described by Kirana (Kirana C. Rogers P F, Bennett L E, Abevwardena M Y, Patten G S, J Agric Food Chem. (2005) Jun. 1; 53(1 1):4623-7) with slight modifications. […] The particle size of micelles was determined by dynamic light scattering (DLS) with use of the Malvern Zetasizer Nano series machine using latex 60 nm Nanosphere Size Standard.
# Monolayers were incubated at 37° C. for 45 min in micellar solutions containing [1,2-^3H] cholesterol with or without unlabeled cholesteryl oleate. […] The cells were analyzed as described above. […]
# [2] = system: wild type male mice (C57BL/6J); assay: Intestinal absorption of cholesteryl oleate in mice, plasma dual isotope ratio method; type: in vivo; conditions: oral bolus [14C]-cholesteryl oleate in skimmed milk, plasma after three days; p<0.001; FIG. 2B
# Procedure: The net intestinal absorption of cholesterol and cholesteryl esters was measured using the plasma dual isotope ratio method described in Wang et al (Journal of Lipid Research, [2003] 44, 1042-1059). This method is based on the simultaneous intragastric (IG) and intravenous (IV) administration of [^3H] -cholesterol and [^14C] -cholesterol, respectively, and measurement of plasma cholesterol isotope ratios at a set point in time. By definition, the IV [^14C]-cholesterol dose corresponds to “100% absorption”, whereas the [^3H]-cholesterol found in the blood reflects the absorption by the gastrointestinal tract. The method allows correction for post-absorptive cholesterol metabolism and for colonic handling of the malabsorbed labelled cholesterol by defining Fifteen wild type male mice (C57BL/6J), age of 5 weeks were randomly assigned into 3 groups. An amount of 2.5 μCi of [^3H]-cholesterol was dissolved in 100 μl of phosphate buffered saline (PBS) and injected into the tail vein of non fasted and not-anesthetized animals. The animal were then given an oral bolus (IG) dose of either [^14C]-cholesterol, [^14C]-cholesterol+unlabeled cholesteryl oleate (molar ratio 1:1) or [^14C]-cholesteryl oleate dissolved in skimmed milk. […] The percent of cholesterol absorption in plasma was calculated using (1).
# [3] = system: wild type male mice (C57BL/6J); assay: Intestinal absorption of cholesterol in mice, plasma dual isotope ratio method, with added cholesteryl oleate; type: in vivo; conditions: oral bolus [14C]-cholesterol + unlabeled cholesteryl oleate (molar ratio 1:1) in skimmed milk, plasma after three days; p<0.05; FIG. 2A
# Procedure: The net intestinal absorption of cholesterol and cholesteryl esters was measured using the plasma dual isotope ratio method described in Wang et al (Journal of Lipid Research, [2003] 44, 1042-1059). This method is based on the simultaneous intragastric (IG) and intravenous (IV) administration of […], and measurement of plasma cholesterol isotope ratios at a set point in time. By definition, the […] corresponds to “100% absorption”, whereas the [^3H]-cholesterol found in the blood reflects the absorption by the gastrointestinal tract. The method allows correction for post-absorptive cholesterol metabolism and for colonic handling of the malabsorbed labelled cholesterol by […] Fifteen wild type male mice (C57BL/6J), age of 5 weeks were randomly assigned into 3 groups. An amount of 2.5 μCi of [^3H]-cholesterol was dissolved in 100 μl of phosphate buffered saline (PBS) and injected into the tail vein of non fasted and not-anesthetized animals. The animal were then given an oral bolus (IG) dose of either [^14C]-cholesterol, [^14C]-cholesterol+unlabeled cholesteryl oleate (molar ratio 1:1) or [^14C]-cholesteryl oleate dissolved in skimmed milk. […] The percent of cholesterol absorption in plasma was calculated using (1).
# [4] = system: CaCo-2 cells; assay: Uptake of micellar cholesteryl oleate by CaCo-2 cells; type: in vitro ADME, Human; conditions: micelles containing [1,2-3H] cholesteryl oleate vs labeled cholesterol, FIG. 1B
# From the text: as §1, §2
# Differentiated Caco-2 cells were incubated at 37° C. for 1, 3 and 5 hours with micellar solutions containing ^3H-labelled cholesteryl oleate according to the method described above. […] For quantitative analysis ^14C-cholesterol was used as an external standard to correct for the extraction efficiency. […]
# [5] = system: Transgenic mice; assay: Aorta surface covered by atherosclerotic lesions, en face ORO staining; type: in vivo; conditions: 28 weeks
# From the text: The surface of aorta covered with atherosclerotic lesions was quantified as described by Palinski et al. (1994) and Zampolli et al. (2006). Non-fasted animals were anesthetized with pentobarbital injected intraperitoneally. Next, maximum volume of blood was collected from the heart by direct cardiac puncture of the right ventricle. Blood was kept for further analyses as described above. The heart and arterial tree were then flushed with a heparin-containing cardioplegic solution via a cannula inserted into the left ventricle, followed by perfusion with formalin for 5 minutes. The arterial tree was exposed, branching arteries were removed and entire aorta was dissected from the aortic arch down to the iliac bifurcation. Using a stereomicroscope, aortas were cleaned from periadventitial tissue; remaining branches were cut off and opened longitudinally by incision following the inner curvature of the aortic arch and the ventral side of the aorta. Additional incisions followed the outer curvature of the arch to the subclavian artery. An Oil Red 0 (ORO) staining solution was prepared by diluting the ORO stock solution (5 mg/ml in 2-propanol; Sigma Aldrich) with deionized water (6:4). Dissected aortas were stained for 30 minutes with ORO, followed by rinsing with 2-propanol and deionized water. Stained aortas were then laid flat on the microscope slide with endothelial side facing upwards. The tissues were mounted with aqueous mounting agent (Aquatex®, Merck Chemicals, Darmstadt, Germany) and covered with glass slide cover slip.
# Digital images of the slides were obtained through the 48-bit color scanner (Canoscan 9950F, Canon) with 1200 DPI resolution. The images were captured in Photoshop CS3 Extended software and converted to gray scale. After further processing, including sharpness, contrast and brightness adjustments, and the image of aorta was printed out in two copies. […] Images of a hand-drawn aorta outlines and regions (patches) matching atherosclerotic lesions were then scanned and re-imported into Adobe Photoshop and the images were then evaluated obtain the percent of aorta covered with atherosclerotic lesions. Briefly, in the digitized image of entire aorta and the image of the patches corresponding to lesions, red outlined areas were converted to black and the blackness values for all pixels in the image were summed and counted.
# Transgenic mice were randomized into 5 dietary regiments: (1) Normal chow (NC), (2) NC+0.2% cholesterol oleate (CLE), (3) Western type diet (WD) containing 0.2% cholesterol, (4) WD containing 0.2% cholesterol and 0.2% CLE, (5) WD containing 0.1% cholesterol and 0.1% CLE. The extent of the lesions was quantified as percent area positive to lipid staining by ORO in the entire aorta after 28 weeks of experimental treatments.
structure (smiles),measurement,setting,value
CCCCCCCC/C=C\CCCCCCCC(=O)O[C@H]1CC[C@@]2(C)C(=CC[C@H]3[C@@H]4CC[C@H]([C@H](C)CCCC(C)C)[C@@]4(C)CC[C@@H]32)C1 [cholesteryl oleate],more cholesterol accumulated by cells incubated with cholesterol micelles alone compared to micelles containing both cholesterol and cholesteryl oleate,[1],30%
same,reduction in cholesterol uptake compared to mice treated with [14C]-cholesterol,[2],50%
same,reduction in cholesterol adsorption compared to [14C]-cholesterol treated mice,[3],12%
same,fold less labeled sterol in cells incubated with cholesteryl oleate micelles compared to cholesterol micelles,[4],approximately 2 fold
same,effect on atherosclerotic lesions in Western type diet,"[5]; WD vs WD+0.2% CLE and WD+0.1% CLE, FIGS. 3 and 4",lowered atherosclerotic lesions
same,"rate of atherosclerosis, WD+0.2% CLE compared with WD+0.1% CLE",[5]; mice fed WD+0.2% CLE,higher rates of atherosclerosis than mice fed with WD+0.1% CLE
same,total plaque area (percent area positive to ORO in the entire aorta),[5]; normal chow (NC)+0.2% CLE,1.2±0.9%
same,difference in plaque formation between NC and NC+0.2% CLE,[5]; normal chow,no difference between those two treatments
